Measurements reported in US20100029600A1, “DIHYDRO-TRITERPENES IN THE TREATMENT OF VIRAL INFECTIONS, CARDIOVASCULAR DISEASE, INFLAMMATION, HYPERSENSITIVITY OR PAIN” (priority 2001, published 2010).

How the values were obtained:
[1] = system: carrageenin-induced paw oedema; test: Carrageenin-induced paw oedema test in the rat, oral; type: in vivo; conditions: 150 mg/kg oral, p<0.05
Description: Carrageenin, the phlogistic agent of choice for testing antiinflammatory drugs, is a mucopolysaccharide derived from Irish sea moss, Chondrus. Ibuprofen is used as a positive control.
The test article is the composition according to the invention described in example 1 further modified so that the dihydro-triterpenes are predominantly in the form of fatty acid esters (Compound 2). Ibuprofen is obtained from Astion A/S, Denmark. The test article is dissolved in peanut oil, which is used as vehicle.
The study is performed in male SPF Sprague Dawley rats of the stock Mol:SPRD from M & B A/S, Tornbjergvej 40, DK-4623 Lille Skensved. At start of the acclimatisation period the rats are in the weight range of 80-100 g.
The test articles or vehicle are administered orally by gavage in volumes of 20 ml per kg body weight, 0-5 minutes before injection of carrageenin into the foot.
Carrageenin (from Sigma) is prepared as a 1% suspension in sterile 0.9% NaCl-solution. A volume of 0.1 ml is injected through a 25-gauge needle into the plantar tissue of the right hind paw of the rats within 5 minutes after treatment with the test articles.
Immediately before the dosing and carrageenin injection and three and five hours later the foot volume is measured using a plethysmometer LE 7500 from Letica Scientific Instruments, Spain.

[2] = system: TPA induced ear inflammation; test: TPA (phorbolester) induced ear oedema test in the mouse, topical; type: in vivo; conditions: 0.02 mg per application topical; 3 h after TPA; p<0.05

SMILES	inhibition of paw oedema ([1]; after five hours) [%]	inhibition of paw oedema ([1]; after three hours) [%]	inhibition of ear swelling [2] [%]
CC(C)Cc1ccc(C(C)C(=O)O)cc1 (stereo not drawn) [ibuprofen, Ibuprofen]	88	81	–
CCCC(=O)O[C@]1(C(=O)CO)CC[C@H]2[C@@H]3CCC4=CC(=O)CC[C@]4(C)[C@H]3[C@@H](O)C[C@@]21C [Hydrocortisone 17-butyrate, hydrocortisone 17-butyrate]	–	–	90
